The values below come from article PMC11833736 (ACS Pharmacology & Translational Science, 2025).

The subject of series [1] is U-87MG cells. Briefly: Cell fractioning (FractionPREP kit), Ru content by ICP-MS. The series is classed as in vitro ADME. As to conditions: 10 μM, 24 h. The protocol: Ru content in different compartments was determined via a FractionPREP Cell Fractionation Kit (Abcam, Cambridge, U.K., no 288085). U-87MG cells were seeded in 25 cm^2 OptiMEM medium (1.5 × 10^6 cells) for 24 h. […] Untreated cells served as control. After 24 h of incubation, the cells were collected, counted, and fractioned according to the manufacturer’s procedure. In short, the cells were collected and centrifuged at 700g for 5 min. The cells were then washed with ice-cold PBS (1 mL) followed by 5 min centrifuging at 700g, and the supernatant was removed. The cell pellet was resuspended in 1 mL of ice-cold PBS, transferred into a 1.5 mL Eppendorf tube, and spun for 5 min at 700g, and the supernatant was removed. The pellet was resuspended in 400 μL of Extraction Buffer III/Cytosol Extraction Buffer Mix [containing 2 μL of dithiothreitol (DTT) and 2 μL of protease inhibitor cocktail per mL]. The cells were mixed well by carefully pipetting up and down (ca. 5 times). The sample was incubated on ice for 20 min with gentle tapping three to four times every 5 min. Afterward, the sample was centrifuged at 700g for 10 min. The supernatant was collected (cytosolic fraction) and kept on ice. The resulting pellet was again resuspended in 400 μL of ice-cold Extraction Buffer IV/Membrane Extraction Buffer-A Mix (containing 2 μL of DTT and 2 μL of protease inhibitor cocktail per mL) and pipetted several times, and the sample was vortexed for 10–15 s to mix well. Then, 22 μL of Lysis Buffer/Membrane Extraction Buffer-B was added and vortexed for 5 s. The samples were incubated for 1 min on ice. Afterward, the sample was vortexed again for 5 s and centrifuged for 5 min at 1000g. The supernatant was immediately transferred to a clean, prechilled 1.5 mL tube and kept on ice (membrane fraction). The pellet was again resuspended in 200 μL of ice-cold Extraction Buffer V/Nuclear Extraction Buffer mix (containing 2 μL of DTT and 2 μL of protease inhibitor cocktail per mL), vortexed for 15 s, and kept on ice for 40 min with constant vortex for 15 s every 10 min. The sample was then microcentrifuged at top speed for 10 min. The resulting supernatant was transferred in a clean, prechilled 1.5 mL tube (nuclear fraction) and kept on ice. The remaining cytoskeletal fraction was dissolved in 100 μL of 0.2% SDS containing 10 mM DTT solution. All samples were digested over 65% HNO3 (0.5 mL) in an oven hot oven (90 °C). The solution was diluted with Milli-Q water to 10 mL, and the Ru content [ppb] was measured by ICP-MS.

In series [2] the test system is SH-SY5Y cells. Briefly: Ru cellular uptake by ICP-MS, dark or green light. The series is classed as in vitro ADME. The note with it: kept in the dark. The protocol:
These surprising results led us to further investigate whether the uptake of the respective compounds plays a pivotal role in the alternation of the proliferation. […] The complex was allowed to incubate for 24 h after irradiation before the ruthenium cellular content was analyzed by ICP-MS. […] We finally decided to incubate the SH-SY5Y cells with the EC50 values obtained from the cytotoxicity experiment using the U-87MG cell, as those procedures would allow one to observe the effect of the prodrug on the healthy neuron-like cells when treated with the phototoxic compound dose. […] Overall, cellular uptake in neuron-like SH-SY5Y cells followed the same trends as those for GBM cells U-87MG in the dark, while uptake was much higher after light activation.
1 mL of SH-SY5Y cells were seeded in 12-well plates (Greiner, No. 665180; 500.000 cells per well). […] After an additional 24 h of incubation, the cells were trypsined, collected, and centrifuged. The resulting cell pellet was dissolved in 1 mL of PBS and counted via a BioRad TC20 automated cell counter. Afterward, the solution was centrifuged and washed again with PBS with subsequent centrifuging two more times. The resulting cell pellet was digested in 0.5 mL of HNO3 overnight in a hot oven (90 °C). The solution was diluted with Milli-Q water to 10 mL, and the Ru and Ca content [ppb] was measured via ICP-MS.

Series [3] concerns the target AChE (Electrophorus electricus, UniProt O42275). As to conditions: for PI: AChE, IC50 dark / IC50 green light; for pIC50: read-out: IC50,D, isolated AChE, 30 min in the dark, read 35 min after DTNB addition. From the text:
Among all enzymes involved in transmembrane signaling, another important one is AChE. In a modified procedure (for further details, see the Experimental Section), we checked whether the ruthenium complexes were able to inhibit AChE in the dark and after light activation. The colorimetric assay used Ellman’s reagent. […] The conversion of 5,5′-dithiobis(2-nitrobenzoic acid) (DTNB) to yellow 2-nitro-5-thiobenzoate (TNB) initiated by the addition of acetylthiocholine was then detected by UV–vis spectroscopy every 5 min for a total time of […]. […] The solution was further diluted 1:50 in 50 mM Tris buffer, pH = 8 (10 μL in 490 μL), and then placed in 4.5 mL of 50 mM Tris buffer, pH = 8. […] 50 μL of the enzyme and 50 μL of the complex solution were added to a 96-well plate in triplicates. […] Meanwhile, a 10 mM solution of acetylthiocholine iodide and 10 mM DTNB was prepared. After the respective time, in each well, 5 μL of the acetylthiocholine iodide and DTNB mixture was added. The absorbance was read at a microplate Tecan reader at 410 nm every 5 min for in total 40 min.

For series [4] the following is noted: cited from earlier work.

A word on the pIC50: it is −log10 of the IC50, conventionally taken in molar units. Usually LogP stands for a log measure of how a compound divides between an organic and an aqueous phase.

pIC50: −log10 of the molar value. “And” between values parts separate entries of the source, which are not always exact repeats. Identical values can stand only once.

Sequence of AChE (O42275 24-633): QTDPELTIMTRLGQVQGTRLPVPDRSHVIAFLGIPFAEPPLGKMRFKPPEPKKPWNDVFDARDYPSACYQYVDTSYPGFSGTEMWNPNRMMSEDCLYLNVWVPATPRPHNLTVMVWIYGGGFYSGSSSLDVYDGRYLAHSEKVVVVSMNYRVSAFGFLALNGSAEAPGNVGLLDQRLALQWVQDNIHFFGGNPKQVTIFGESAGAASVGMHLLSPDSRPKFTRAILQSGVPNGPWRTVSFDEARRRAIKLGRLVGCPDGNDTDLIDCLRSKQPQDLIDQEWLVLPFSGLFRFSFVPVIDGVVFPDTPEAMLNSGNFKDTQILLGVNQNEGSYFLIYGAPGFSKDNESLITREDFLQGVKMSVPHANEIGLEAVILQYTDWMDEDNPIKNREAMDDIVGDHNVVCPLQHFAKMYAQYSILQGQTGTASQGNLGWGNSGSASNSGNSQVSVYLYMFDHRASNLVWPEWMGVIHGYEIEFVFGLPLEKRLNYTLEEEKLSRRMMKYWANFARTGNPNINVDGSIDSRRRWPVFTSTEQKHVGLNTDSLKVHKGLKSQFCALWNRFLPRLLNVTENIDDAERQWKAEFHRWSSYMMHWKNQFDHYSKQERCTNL

With `CSCCO.F[P-](F)(F)(F)(F)F.F[P-](F)(F)(F)(F)F.[Ru+2].c1ccc(-c2cccc(-c3ccccn3)n2)nc1.c1ccc2cc(-c3cc4ccccc4cn3)ncc2c1` [[2](PF6)2], in series [1], the “Ru content, Cytosol” value is 0.18 ng Ru/mio. cells and 0.18 ± 0.06 ng Ru/mio. cells; the “Ru content, Membrane” value is 0.83 ng Ru/mio. cells and 0.83± 0.57 ng Ru/mio. cells; the “Ru content, Nucleus” value was 0.03 ± 0.03 ng Ru/mio. cells. The “Ru uptake, Dark” value in series [2] (20 μM) is 1.02 ± 0.63 ng Ru/mio. cells and 1.0 ng Ru/mio. cells. Also, in series [3], the PI was more than 1.5 and the pIC50 was less than 4.82. In addition, in series [4], the LogP was 3.08.
As to `CSCCO.F[P-](F)(F)(F)(F)F.F[P-](F)(F)(F)(F)F.[Ru+2].c1ccc(-c2cccc(-c3ccccn3)n2)nc1.c1ccc2cc(Nc3cc4ccccc4cn3)ncc2c1` [[3](PF6)2], in series [1], the “Ru content, Cytosol” value was found to be 0.07 ± 0.05 ng Ru/mio. cells; the “Ru content, Membrane” value was 0.88 ng Ru/mio. cells and 0.88 ± 0.25 ng Ru/mio. cells; the “Ru content, Nucleus” value is 0.17 ng Ru/mio. cells and 0.17 ± 0.06 ng Ru/mio. cells. Also, the “Ru uptake, Dark” value in series [2] (10 μM) is 2.44 ± 0.63 ng Ru/mio. cells and 2.4 ng Ru/mio. cells. Further, in series [3], the PI is 2 and the pIC50 is 5.02. For the same compound, the LogP in series [4] is reported as 2.92.
